Data on 15 compounds can be found in PubChem BioAssay (NCI).

Assay in all cases: NCI tumour cell line growth inhibition, 48 h
Experiment [1] deals with A498 renal.
The test system of experiment [2] is COLO 205 colon.
Experiment [3] deals with LOX IMVI melanoma.
Experiment [4] concerns MOLT-4 leukemia.
For experiment [5], the system named is SF-268 CNS.
Experiment [6] relates to SF-539 CNS.
The subject of experiment [7] is SN12C renal.
For experiment [8], the system named is SNB-19 CNS.
Experiment [9] deals with SW-620 colon.
Experiment [10] has as its system T-47D breast.

Each structure is given as a SMILES string. Values joined by “and” are separate entries in the source; they are usually repeats but may differ in a detail not shown here. Equal entries are not always repeated.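 Grown in 96-well plates, cells were treated for 48 hours with each compound at five concentrations. Insufficient inhibition: endpoint recorded as highest concentration tested. Abbreviation: GI50, concentration required for 50% inhibition of growth. The concentration for full growth arrest is given as TGI.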

Turning to `Nc1cc(N)cc(Cc2ccccc2)c1`, the TGI in [1], in experiment [2], in [3], in experiment [4], in experiment [5] and in experiment [6] was greater than 100 µM throughout. Also, the TGI in experiment [7], in experiment [8], in [9] and in experiment [10] was greater than 100 µM in each case.
In the case of `O=C(Nc1nc(-c2ccccc2)cs1)c1cc(O)c(O)c(O)c1`, the GI50 was 5.41 µM in experiment [1]; 10.8 µM in experiment [2]; 3.62 µM in [3]; 1.57 µM in experiment [4]; 2.72 µM in experiment [5]; 2.77 µM in experiment [6]. Further, the GI50 in experiment [7] is 3.19 µM; in [8], 2.61 µM; in experiment [9] it was 2.66 µM; in [10], 2.34 µM. For the same compound, the TGI in [1] was found to be 28.2 µM; in experiment [2] it was 30.1 µM; in experiment [3] it was 32.1 µM; in [4] it was 19.4 µM; in experiment [5] it was 31.9 µM; in [6], 11.9 µM. The TGI is 29.9 µM in [7], greater than 100 µM in experiment [8], 37.4 µM in experiment [9] and 22.8 µM in experiment [10].
Consider `Cc1ccc(NC(=O)N2CCCCC2)cc1[N+](=O)[O-]`, for which the GI50 is 87.8 µM in [1]; greater than 100 µM in experiment [2]; greater than 100 µM in experiment [3]; greater than 100 µM in experiment [4]; greater than 100 µM in [5]; greater than 100 µM in [6]. For the same compound, the GI50 in experiment [7] was greater than 100 µM; in experiment [8] it was greater than 100 µM; in experiment [9], greater than 100 µM; in experiment [10], 77.1 µM. Moreover, the TGI in experiment [1], in experiment [2], in experiment [3], in experiment [4], in experiment [5] and in experiment [6] was greater than 100 µM each time. Moreover, the TGI in experiment [7], in experiment [8], in [9] and in experiment [10] was greater than 100 µM each time.
On to `CCOc1ccc(NC(=O)c2cc3ccccc3cc2O)cc1`, for which the GI50 in [1] is 86.4 µM; in experiment [2], greater than 100 µM; in experiment [3], 58.1 µM; in [4] it was greater than 100 µM; in experiment [5], 64.8 µM; in experiment [6], 33.2 µM. Further, the GI50 in [7] is greater than 100 µM; in experiment [8], 41.2 µM; in experiment [9], greater than 100 µM; in experiment [10], greater than 100 µM. The TGI in experiment [1], in [2], in [3], in experiment [4], in experiment [5] and in [6] was greater than 100 µM in each case. Further, the TGI in experiment [7], in experiment [8], in experiment [9] and in experiment [10] was greater than 100 µM throughout.
Consider `N=C1N=C(N)S/C1=C\c1ccc2ncccc2c1`, for which the GI50 was 13.7 µM in experiment [1]; greater than 25 µM in experiment [2]; greater than 25 µM in experiment [3]; greater than 25 µM in [4]; greater than 25 µM in experiment [5]; greater than 25 µM in experiment [6]. The GI50 in [7], in [8], in [9] and in experiment [10] was greater than 25 µM each time. For the same compound, the TGI in experiment [1], in experiment [2], in [3], in experiment [4], in experiment [5] and in experiment [6] was greater than 25 µM in each case. Besides, the TGI in experiment [7], in experiment [8], in experiment [9] and in experiment [10] was greater than 25 µM in each case.
With `CC(C)c1ccc(/C=N/N=C(N)N)cc1`, the GI50 in experiment [1] is 11.3 µM; in experiment [2], 1.72 µM; in [3], 3.49 µM; in experiment [4], 5.17 µM; in experiment [6], 11.6 µM; in [7], 6.35 µM. Moreover, the GI50 in experiment [8] was 4.77 µM; in [9], 2.9 µM; in experiment [10] it was 2.03 µM. Moreover, the TGI in [1] was 23.8 µM; in experiment [2], 3.33 µM; in experiment [3], 14.7 µM; in experiment [4] it was 32.6 µM; in experiment [5] it was 25.1 µM; in [6], 25.3 µM. The TGI amounted to 20.4 µM in experiment [7], 17.4 µM in experiment [8], 11.6 µM in experiment [9] and 5.53 µM in experiment [10].
In the case of `Clc1ccc(N/N=C(\c2ccccc2)c2ccccn2)nc1`, the GI50 in [1] was 0.133 µM; in experiment [2], 0.0308 µM; in [3] it was 0.246 µM; in experiment [4], 0.0367 µM; in experiment [5] it was 0.324 µM; in [6], 0.297 µM. Moreover, the GI50 was 0.251 µM in experiment [7], 0.466 µM in experiment [8], 0.0958 µM in experiment [9] and less than 0.0163 µM in experiment [10]. Also, the TGI is 16.4 µM and > 100 µM in experiment [1]; 18.1 µM in experiment [2]; 4.48 µM in experiment [3]; 21.1 µM and 4.08 µM in experiment [5]; 5.57 µM and 9.47 µM in [6]; > 49.2 µM and 33.1 µM in experiment [7]. For the same compound, the TGI in experiment [8] was greater than 100 µM; in [9] it was greater than 65.3 µM; in experiment [10] it was greater than 100 µM.
`O=C(Nc1cc(C(F)(F)F)cc(C(F)(F)F)c1)Nc1ccc(OCc2nnc(-c3ccc(Cl)cc3)o2)c(F)c1`: the GI50 in [1] was 1.91 µM; in experiment [2] it was 1.64 µM; in experiment [3] it was 2.07 µM; in [4], 2.72 µM; in experiment [5] it was 4.08 µM; in experiment [6] it was 2.83 µM. Besides, the GI50 is 2.61 µM in experiment [7], 3.1 µM in experiment [8], 2.66 µM in [9] and 1.85 µM in experiment [10]. Moreover, the TGI came to 6.5 µM in experiment [1]; 3.15 µM in [2]; 5.31 µM in experiment [3]; 12 µM in experiment [4]; 21 µM in [5]; 8.47 µM in [6]. Moreover, the TGI stood at 15.7 µM in experiment [7], 25.1 µM in [8], 12.3 µM in [9] and 8.04 µM in experiment [10].
On to `OCc1ncc(-c2ccccc2)s1`, for which the GI50 in experiment [1], in [2], in experiment [3], in experiment [4], in [5] and in experiment [6] was greater than 100 µM in each case. The GI50 in experiment [7], in experiment [8], in experiment [9] and in experiment [10] was greater than 100 µM in each case. The TGI in experiment [1], in experiment [2], in experiment [3], in experiment [4], in experiment [5] and in experiment [6] was greater than 100 µM each time. The TGI in [7], in [8], in experiment [9] and in experiment [10] was greater than 100 µM throughout.
On to `COc1ccc(C2CC(c3cccc(OC)c3)=NN2C(=O)c2cc(OC)c(OC)c(OC)c2)cc1` (configuration not stated), for which the GI50 is 1.12 µM in experiment [1]; 1.19 µM in experiment [2]; 4.26 µM in experiment [3]; 2.14 µM in experiment [4]; 4.09 µM in experiment [5]; 1.62 µM in [6]. Besides, the GI50 is 5.03 µM in [7], 3.16 µM in experiment [8], 0.881 µM in [9] and 3.02 µM in [10]. Further, the TGI is 5.53 µM in experiment [2]; greater than 100 µM in [3]; greater than 100 µM in [4]; greater than 100 µM in experiment [5]; 5.3 µM in experiment [6]; greater than 100 µM in experiment [7]. Further, the TGI in experiment [8], in [9] and in experiment [10] was greater than 100 µM each time.
`Cc1ccc(S(=O)(=O)NNC(C[N+](=O)[O-])c2ccccc2)cc1` (configuration not stated): the TGI in [1] is 30.8 µM; in experiment [2] it was 30.8 µM; in experiment [3] it was greater than 100 µM; in [4], greater than 100 µM; in experiment [5] it was 35.7 µM; in [6] it was 81.5 µM. The TGI was greater than 100 µM in experiment [7], 30.4 µM in experiment [8], greater than 100 µM in experiment [9] and 57.5 µM in experiment [10].
Consider `O=C(c1ccccc1)c1ccc(O)c2ncccc12`, for which the GI50 was 9.29 µM in experiment [1]; 23.9 µM in [2]; 1.87 µM in [3]; 3.16 µM in experiment [4]; 3.11 µM in [5]; 4.66 µM in experiment [6]. Further, the GI50 in experiment [7] is 2.46 µM; in experiment [8], 6.54 µM; in [9] it was 4.07 µM; in [10] it was 3.14 µM. Further, the TGI in [1] was 27.4 µM; in [2], 95.7 µM; in [3] it was 13.1 µM; in experiment [4], greater than 100 µM; in [5], greater than 100 µM; in experiment [6] it was 21.3 µM. For the same compound, the TGI was 14.8 µM in experiment [7], greater than 100 µM in [8], 17.9 µM in experiment [9] and 15.3 µM in experiment [10].
With `CN(C)CCCN1c2ccc(O)cc2Sc2ccc(Cl)cc21`, the TGI in experiment [1] was 31.6 µM; in [2], 39.3 µM; in experiment [3], 20.2 µM; in experiment [4], 17.5 µM; in experiment [5], 21 µM; in [6], 28.7 µM. For the same compound, the TGI in experiment [7] came to 23.1 µM; in experiment [8], 27.6 µM; in experiment [9], 39.6 µM; in experiment [10], 38.7 µM.
In the case of `CC(=O)[O][Hg][CH2]C1(C)COC(C)([CH2][Hg][O]C(C)=O)CO1` (configuration not stated), the GI50 in [1] is 19.4 µM; in experiment [2], 1.47 µM; in [3], 1.21 µM; in experiment [4], 0.747 µM; in [5], 4.73 µM; in experiment [6], 17.7 µM. For the same compound, the GI50 in [7] was 0.887 µM; in experiment [8], 16.1 µM; in experiment [9] it was 1.51 µM; in experiment [10] it was 2.94 µM. The TGI in experiment [1] was determined as 34.8 µM; in [2], 3.15 µM; in experiment [3], 2.67 µM; in [4], 3.14 µM; in experiment [5] it was 9.17 µM; in experiment [6], 32.6 µM. Moreover, the TGI came to 4.49 µM in experiment [7], 30 µM in [8], 3.11 µM in [9] and 21.4 µM in [10].
For `CNC(C)[C@H]1CCC2C3CCC4C[C@@H](N(C)C(=O)c5ccccc5)CC[C@]4(C)C3CC[C@@]21C` (some centres not stated), the GI50 is 1.65 µM in [1]; 1.15 µM in experiment [2]; 0.419 µM in experiment [3]; 1.02 µM in experiment [4]; 1.16 µM in [5]; 0.739 µM in experiment [6]. Moreover, the GI50 in [7] is 1.82 µM; in experiment [8], 2.88 µM; in [9], 0.854 µM; in experiment [10] it was 0.37 µM. Besides, the TGI in experiment [1] was found to be 10.2 µM; in [2], 2.52 µM; in experiment [3], 1.8 µM; in experiment [4] it was 3.46 µM; in experiment [5] it was 3.21 µM; in [6], 2.01 µM. For the same compound, the TGI in experiment [7] came to 8.34 µM; in [8] it was 8.36 µM; in [9], 2.9 µM; in experiment [10], 4.26 µM.
